# ChEMBL document CHEMBL4387731, “Eicosanoid mediation of cannabinoid actions” (2019)
# How the values were obtained:
# [1] = Inhibition of IL1aplha-induced PGE2 production in bovine articular chondrocytes at 5 uM incubated for 48 hrs by ELISA relative to control; format: functional; conditions: Bos taurus
# [2] = target: Cannabinoid receptor 2 (Homo sapiens) (UniProt P34972); test: Agonist activity at human CB2 receptor assessed as reduction in […] level at 20 uM incubated for 10 mins relative to control
# Chain of Cannabinoid receptor 2 (Homo sapiens) (P34972 whole entry): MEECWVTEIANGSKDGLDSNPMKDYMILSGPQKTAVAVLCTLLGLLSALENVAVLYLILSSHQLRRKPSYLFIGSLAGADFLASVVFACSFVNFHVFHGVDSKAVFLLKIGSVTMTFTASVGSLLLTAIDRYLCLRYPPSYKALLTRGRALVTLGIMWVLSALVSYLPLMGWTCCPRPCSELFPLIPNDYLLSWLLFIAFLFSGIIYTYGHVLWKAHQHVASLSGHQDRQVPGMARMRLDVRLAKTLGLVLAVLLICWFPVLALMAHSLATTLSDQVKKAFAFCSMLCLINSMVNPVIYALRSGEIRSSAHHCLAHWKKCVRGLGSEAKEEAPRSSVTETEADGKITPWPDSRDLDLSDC
# [3] = species on record: Cavia porcellus; test: Agonist activity at Dunkin Hartley guinea pig CB2 receptor assessed as inhibition of capsaicin-induced depolarization at 20 uM incubated for 10 mins relative to control
# [4] = species on record: Cavia porcellus; test: Agonist activity at Dunkin Hartley guinea pig CB2 receptor assessed as reduction in […] level at 20 uM incubated for 10 mins relative to control
# [5] = target: Cannabinoid receptor 2 (Homo sapiens) (UniProt P34972); test: Agonist activity at human CB2 receptor assessed as inhibition of capsaicin-induced depolarization at 20 uM incubated for 10 mins relative to control
# [6] = tested on: Mus musculus; test: Reduction in LTB4 production in athymic CD-1 nude mouse xenografted with human U87 cells at 0.5 mg/mouse/day administered peritumorally for 5 days by RP-HPLC analysis relative to control; format: functional; design: scale not given: the % may be the effect or the level left
# [7] = tested on: Mus musculus; test: Reduction in anandamide production in athymic CD-1 nude mouse xenografted with human U87 cells at 0.5 mg/mouse/day administered peritumorally for 5 days by RP-HPLC with fluorimetric detection method relative to control; format: functional; design: scale not given: the % may be the effect or the level left
# [8] = tested on: J774; test: Inhibition of LPS-induced PGE2 production in mouse J774 cells at 10 uM incubated for 24 hrs by enzyme immunoassay relative to control; format: functional; conditions: J774, 24 h
# [9] = tested on: Oryctolagus cuniculus; test: Reduction in intraocular pressure in rabbit applied topically relative to control; format: functional; design: scale not given: the % may be the effect or the level left
structure (smiles),measurement,setting,value
CCCCCCC(C)(C)c1cc(O)c2c(c1)OC(C)(C)[C@@H]1CCC(CO)=C[C@@H]21,inhibition at 5 µM,[1],> 50%
O=C(NCc1ccncc1)c1cnc(Nc2cccc(Cl)c2)nc1C(F)(F)F,Imax,[2],40%
same,Imax,[3],40%
same,Imax,[4],40%
same,Imax,[5],40%
C=C(C)[C@@H]1CCC(C)=C[C@H]1c1c(O)cc(CCCCC)cc1O [CANNABIDIOL],Activity,[6],25%
same,Activity,[7],30%
CCCCCc1cc(O)c2c(c1)OC(C)(C)[C@@H]1CCC(C)=C[C@@H]21 [DRONABINOL],inhibition at 10 µM,[8],60%
same,Activity,[9],20 - 25%
Cc1c(C(=O)c2cccc3ccccc23)c2cccc3c2n1[C@H](CN1CCOCC1)CO3 [WIN-552122],inhibition at 5 µM,[1],> 50%
